Activity calls are given as the source filed them. The calls are words filed in the database; no cut-off is given here.
Tests used:
Bile acid receptor = target: T1, Bile acid receptor (Homo sapiens, UniProt Q96RI1); assay: Agonist activity at FXR-LBD (unknown origin) assessed by ligand binding ability incubated for 3 hrs in absence of light measured by TR-FRET Coactivator assay
T1 sequence (Q96RI1 whole entry): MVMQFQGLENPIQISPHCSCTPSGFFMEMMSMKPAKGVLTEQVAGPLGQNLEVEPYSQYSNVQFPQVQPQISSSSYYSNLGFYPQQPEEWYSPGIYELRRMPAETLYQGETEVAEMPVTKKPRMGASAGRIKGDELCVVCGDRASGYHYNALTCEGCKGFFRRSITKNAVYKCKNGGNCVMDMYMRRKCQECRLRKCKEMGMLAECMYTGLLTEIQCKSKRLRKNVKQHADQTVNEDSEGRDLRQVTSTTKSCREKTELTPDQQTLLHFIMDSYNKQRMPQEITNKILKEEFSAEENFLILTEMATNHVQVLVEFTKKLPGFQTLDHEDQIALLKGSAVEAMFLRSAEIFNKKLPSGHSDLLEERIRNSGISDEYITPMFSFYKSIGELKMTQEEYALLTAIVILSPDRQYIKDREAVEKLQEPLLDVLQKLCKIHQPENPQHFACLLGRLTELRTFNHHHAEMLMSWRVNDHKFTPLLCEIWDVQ

[1] = Agonist activity at FXR (unknown origin)/human RXR heterodimer expressing in human HepG2 cells co-expressing pCMV gal assessed luciferase activity measured after 24 hrs by cell based luciferase transactivation assay; conditions: HepG2, 24 h
HepG2 = assay: Agonist activity at FXR (unknown origin)/human RXR heterodimer expressing in human HepG2 cells co-expressing pCMV gal assessed luciferase activity measured after 24 hrs by cell based luciferase transactivation assay relative to […]; conditions: dose 3.0 µM
Mus musculus [2] = assay: Hepatoprotective activity in APAP-induced C57BL/6 mouse liver injury model assessed as decrease in hepatic necrosis at 30 mg/kg, bid oral gavage for 5 days measured after 12 hrs of APAP injection; format: functional, organism-based; conditions: time 5.0 day
Mus musculus [3] = assay: Hepatoprotective activity in APAP-induced C57BL/6 mouse liver injury model assessed as decrease in hepatic degeneration at 30 mg/kg, bid oral gavage for 5 days measured after 12 hrs of APAP injection; format: functional, organism-based; conditions: time 5.0 day
Mus musculus [4] = assay: Hepatoprotective activity in APAP-induced C57BL/6 mouse liver injury model assessed as decrease in hepatic haemorrhage at 30 mg/kg, bid oral gavage for 5 days measured after 12 hrs of APAP injection; format: functional, organism-based; conditions: time 5.0 day
Mus musculus [5] = assay: Hepatoprotective activity in APAP-induced C57BL/6 mouse liver injury model assessed as decrease in […] at 30 mg/kg, bid oral gavage measured after 5 days; format: functional, organism-based; conditions: time 5.0 day
Mus musculus [6] = assay: Hepatoprotective activity in APAP-induced C57BL/6 mouse liver injury model assessed as decrease in serum ALT levels at 30 mg/kg, bid oral gavage measured after 5 days; format: functional, organism-based; conditions: time 5.0 day
Mus musculus [7] = assay: Hepatoprotective activity in APAP-induced C57BL/6 mouse liver injury model assessed as decrease in serum AST levels at 30 mg/kg, bid oral gavage measured after 5 days; format: functional, organism-based; conditions: time 5.0 day
Mus musculus [8] = assay: Hepatoprotective activity in APAP-induced C57BL/6 mouse liver injury model assessed as decrease in serum LDH levels at 30 mg/kg, bid oral gavage measured after 5 days; format: functional, organism-based; conditions: time 5.0 day
[9] = target: T2, Bile acid receptor (Mus musculus) (UniProt Q60641); assay: In vivo agonist activity at FXR in C57BL/6 mouse assessed as inhibition of APAP-induced FXR decline at 30 mg/kg, bid ip measured after 5 days by RT-PCR method; format: functional, organism-based; conditions: time 5.0 day
T2 sequence (whole entry): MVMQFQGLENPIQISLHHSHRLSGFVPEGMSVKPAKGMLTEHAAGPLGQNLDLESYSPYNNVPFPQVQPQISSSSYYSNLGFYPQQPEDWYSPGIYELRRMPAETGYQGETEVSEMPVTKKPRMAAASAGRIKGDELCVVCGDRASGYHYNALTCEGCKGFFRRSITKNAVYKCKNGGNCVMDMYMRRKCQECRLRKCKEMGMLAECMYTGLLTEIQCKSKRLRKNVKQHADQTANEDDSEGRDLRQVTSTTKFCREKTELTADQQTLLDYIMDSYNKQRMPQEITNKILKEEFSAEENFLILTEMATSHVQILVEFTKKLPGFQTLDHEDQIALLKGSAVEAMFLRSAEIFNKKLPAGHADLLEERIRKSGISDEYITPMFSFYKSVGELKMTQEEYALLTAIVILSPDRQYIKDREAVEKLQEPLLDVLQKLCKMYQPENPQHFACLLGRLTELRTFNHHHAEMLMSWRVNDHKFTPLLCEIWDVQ

[10] = target: T2, Bile acid receptor (Mus musculus); assay: In vivo agonist activity at FXR in C57BL/6 mouse assessed as increase of UGT1A1 mRNA expression at 30 mg/kg, bid ip measured after 5 days by RT-PCR method; format: functional, organism-based; conditions: time 5.0 day
[11] = target: T2, Bile acid receptor (Mus musculus); assay: In vivo agonist activity at FXR in C57BL/6 mouse assessed as increase of BSEP mRNA expression at 30 mg/kg, bid ip measured after 5 days by RT-PCR method; format: functional, organism-based; conditions: time 5.0 day
[12] = target: T2, Bile acid receptor (Mus musculus); assay: In vivo agonist activity at FXR in C57BL/6 mouse assessed as upregulation of OST beta mRNA expression at 30 mg/kg, bid ip measured after 5 days by RT-PCR method; format: functional, organism-based; conditions: time 5.0 day
[13] = target: T2, Bile acid receptor (Mus musculus); assay: In vivo agonist activity at FXR in C57BL/6 mouse assessed as upregulation of SHP mRNA expression at 30 mg/kg, bid ip measured after 5 days by RT-PCR method; format: functional, organism-based; conditions: time 5.0 day
[14] = target: T2, Bile acid receptor (Mus musculus); assay: In vivo agonist activity at FXR in C57BL/6 mouse assessed as upregulation of IBABP mRNA expression at 30 mg/kg, bid ip measured after 5 days by RT-PCR method; format: functional, organism-based; conditions: time 5.0 day
[15] = target: T2, Bile acid receptor (Mus musculus); assay: In vivo agonist activity at FXR in C57BL/6 mouse assessed as decrease of CYP7A1 mRNA expression at 30 mg/kg, bid ip measured after 5 days by RT-PCR method; format: functional, organism-based; conditions: time 5.0 day
Mus musculus [16] = assay: Hepatoprotective activity in APAP-induced C57BL/6 mouse liver injury model assessed as increase in GSH levels at 30 mg/kg, bid oral gavage measured after 5 days; format: functional, organism-based; conditions: time 5.0 day
Mus musculus [17] = assay: Hepatoprotective activity in APAP-induced C57BL/6 mouse liver injury model assessed as increase in Gclm mRNA expression at 30 mg/kg, bid oral gavage measured after 5 days by qRT-PCR method; format: functional, organism-based; conditions: time 5.0 day
Mus musculus [18] = assay: Hepatoprotective activity in APAP-induced C57BL/6 mouse liver injury model assessed as increase in catalase mRNA expression at 30 mg/kg, bid oral gavage measured after 5 days by qRT-PCR method; format: functional, organism-based; conditions: time 5.0 day
Mus musculus [19] = assay: Hepatoprotective activity in APAP-induced C57BL/6 mouse liver injury model assessed as increase in SOD2 mRNA expression at 30 mg/kg, bid oral gavage measured after 5 days by qRT-PCR method; format: functional, organism-based; conditions: time 5.0 day
Mus musculus [20] = assay: Hepatoprotective activity in APAP-induced C57BL/6 mouse liver injury model assessed as increase in Gpx1 mRNA expression at 30 mg/kg, bid oral gavage measured after 5 days by qRT-PCR method; format: functional, organism-based; conditions: time 5.0 day
Mus musculus [21] = assay: Hepatoprotective activity in APAP-induced C57BL/6 mouse liver injury model assessed as increase in SOD1 mRNA expression at 30 mg/kg, bid oral gavage measured after 5 days by qRT-PCR method; format: functional, organism-based; conditions: time 5.0 day

SMILES: Cc1cccc(COc2ccc(C(=O)Nc3cccc(C(=O)O)c3)cc2)c1
- EC50 (Bile acid receptor): 259 nM

SMILES: O=C(O)c1cccc(OCc2ccc(Oc3ccccc3)cc2)c1
- EC50 (Bile acid receptor): > 10000 nM

SMILES: CCCCCOc1cccc(C(=O)Nc2cccc(C(=O)O)c2)c1
- EC50 (Bile acid receptor): 2540 nM

SMILES: O=C(O)c1cccc(NC(=O)c2cccc(-c3ccccc3)c2)c1
- EC50 (Bile acid receptor): 25 nM
- EC50 [1]: 196 nM
- Activity (HepG2): 28.6%
- Activity (Mus musculus [2]): Active
- Activity (Mus musculus [3]): Active
- Activity (Mus musculus [4]): Active
- Activity (Mus musculus [5]): Active
- Activity (Mus musculus [6]): Active
- Activity (Mus musculus [7]): Active
- Activity (Mus musculus [8]): Active
- Activity [9]: Active
- Activity [10]: Active
- Activity [11]: Active
- Activity [12]: Active
- Activity [13]: Active
- Activity [14]: Active
- Activity [15]: Active
- Activity (Mus musculus [16]): Active
- Activity (Mus musculus [17]): Active
- Activity (Mus musculus [18]): Active
- Activity (Mus musculus [19]): Active
- Activity (Mus musculus [20]): Active
- Activity (Mus musculus [21]): Active

SMILES: Cc1ccc(NC(=O)c2cccc(C(=O)O)c2)cc1
- EC50 (Bile acid receptor): > 10000 nM

SMILES: CCCCOc1cccc(-c2cccc(C(=O)Nc3cccc(C(=O)O)c3)c2)c1
- EC50 (Bile acid receptor): 256 nM

SMILES: O=C(O)c1cccc(NC(=O)c2ccc(-c3ccccc3)cc2)c1
- EC50 (Bile acid receptor): > 10000 nM

SMILES: O=C(O)c1cccc(NC(=O)c2ccc(OCc3ccccc3)cc2)c1
- EC50 (Bile acid receptor): 135 nM

SMILES: CO/N=C(/COc1ccc(C(=O)Nc2cccc(C(=O)O)c2)cc1)c1ccccc1
- EC50 (Bile acid receptor): > 10000 nM

SMILES: O=C(O)c1cccc(NC(=O)c2cccc(OCC3CC3)c2)c1
- EC50 (Bile acid receptor): 1260 nM

SMILES: CC(Oc1cccc(NC(=O)c2ccc(Oc3ccccc3)cc2)c1)C(=O)O (stereo not given)
- EC50 (Bile acid receptor): > 10000 nM

SMILES: CCCCOc1ccc(C(=O)Nc2cccc(C(=O)O)c2)cc1
- EC50 (Bile acid receptor): 105 nM

SMILES: COc1ccccc1C(=O)Nc1ccc(C)c(C(=O)O)c1
- EC50 (Bile acid receptor): > 10000 nM

SMILES: O=C(O)c1ccc(NC(=O)c2ccc(Oc3ccccc3)cc2)cc1
- EC50 (Bile acid receptor): > 10000 nM

SMILES: Cc1ccccc1-c1cccc(C(=O)Nc2cccc(C(=O)O)c2)c1
- EC50 (Bile acid receptor): 68 nM
- EC50 [1]: 385 nM
- Activity (HepG2): 23.1%

SMILES: Cc1ccc(COc2cccc(C(=O)Nc3cccc(C(=O)O)c3)c2)cc1
- EC50 (Bile acid receptor): 1420 nM

SMILES: O=C(O)COc1cccc(NC(=O)c2ccc(Oc3ccccc3)cc2)c1
- EC50 (Bile acid receptor): > 10000 nM

SMILES: COc1cccc(C(=O)Nc2cccc(C(=O)O)c2)c1
- EC50 (Bile acid receptor): 1040 nM

SMILES: Cc1cccc(COc2cccc(C(=O)Nc3cccc(C(=O)O)c3)c2)c1
- EC50 (Bile acid receptor): 1860 nM

SMILES: O=C(O)c1cccc(NC(=O)c2nc(-c3ccccc3)cs2)c1
- EC50 (Bile acid receptor): 2880 nM

SMILES: CCOc1cccc(C(=O)Nc2cccc(C(=O)O)c2)c1
- EC50 (Bile acid receptor): 2350 nM

SMILES: O=C(Nc1ccccc1C(=O)O)c1ccc(Oc2ccccc2)cc1
- EC50 (Bile acid receptor): > 10000 nM

SMILES: Cc1cc(C(=O)Nc2cccc(C(=O)O)c2)nn1-c1ccccc1
- EC50 (Bile acid receptor): > 10000 nM

SMILES: COc1ccc(C(=O)Nc2cccc(C(=O)O)c2)cc1
- EC50 (Bile acid receptor): 607 nM

SMILES: O=C(O)c1cccc(NC(=O)c2csc(-c3ccc(C(F)(F)F)cc3)n2)c1
- EC50 (Bile acid receptor): 1690 nM

SMILES: CCCOc1cccc(C(=O)Nc2cccc(C(=O)O)c2)c1
- EC50 (Bile acid receptor): 2150 nM

SMILES: O=C(O)c1ccc(OCc2ccc(OCc3c(-c4c(Cl)cccc4Cl)noc3C3CC3)cc2)cc1
- EC50 (Bile acid receptor): 265 nM
- Activity (Mus musculus [2]): Active
- Activity (Mus musculus [3]): Active
- Activity (Mus musculus [4]): Active
- Activity (Mus musculus [6]): Active
- Activity (Mus musculus [7]): Active
- Activity (Mus musculus [8]): Active

SMILES: COc1ccccc1C(=O)Nc1cccc(C(=O)O)c1
- EC50 (Bile acid receptor): > 10000 nM

SMILES: O=C(O)c1cccc(NC(=O)c2cccc(OCc3ccccc3)c2)c1
- EC50 (Bile acid receptor): 1160 nM

SMILES: O=C(O)c1cccc(NC(=O)c2ccc(Oc3ccccc3)cc2)c1
- EC50 (Bile acid receptor): 97 nM
- EC50 [1]: 463 nM
- Activity (HepG2): 21.2%
- Activity (Mus musculus [2]): Active
- Activity (Mus musculus [3]): Active
- Activity (Mus musculus [4]): Active
- Activity (Mus musculus [6]): Active
- Activity (Mus musculus [7]): Active
- Activity (Mus musculus [8]): Active

SMILES: Cc1ccc(NC(=O)c2ccc(Oc3ccccc3)cc2)cc1C(=O)O
- EC50 (Bile acid receptor): 127 nM

SMILES: Cc1ccccc1-c1cccc(COc2ccc(C(=O)Nc3cccc(C(=O)O)c3)cc2)c1
- EC50 (Bile acid receptor): 1020 nM

SMILES: CC(C)CCOc1ccc(C(=O)Nc2cccc(C(=O)O)c2)cc1
- EC50 (Bile acid receptor): 215 nM

SMILES: Cc1nc(-c2ccc(C(F)(F)F)cc2)sc1C(=O)Nc1cccc(C(=O)O)c1
- EC50 (Bile acid receptor): 315 nM

SMILES: O=C(O)c1cccc(NC(=O)c2ccc(OCc3cccc(-c4ccccc4)c3)cc2)c1
- EC50 (Bile acid receptor): 319 nM

SMILES: CC(C)(Oc1cccc(NC(=O)c2ccc(Oc3ccccc3)cc2)c1)C(=O)O
- EC50 (Bile acid receptor): > 10000 nM

SMILES: CC(C)CCOc1cccc(C(=O)Nc2cccc(C(=O)O)c2)c1
- EC50 (Bile acid receptor): 2760 nM
